In patent US6410054B1, “Immediate release eplerenone compositions” (G. D. Searle & Co., priority 1998, dated 2002):

How the values were obtained:
[1] = Single dose study: plasma pharmacokinetics of eplerenone, open lactone ring form, spironolactone; settings: for concentration at 24 h / concentration at 28 h / concentration at 32 h / concentration at 48 h / concentration at 72 h / concentration at 96 h / half-life / AUC(0-t) / Cmax / MRT / Tmax / concentration at 0.5 h / concentration at 1 h / concentration at 2 h / concentration at 3 h / concentration at 4 h / concentration at 6 h / concentration at 8 h / concentration at 12 h / concentration at 16 h: male, human, plasma, po
Protocol: The pharmacokinetics, safety and antialdosterone activity of single 10, 50, 100, 300 and 1000 mg oral doses of eplerenone were evaluated in a single-center, randomized, double-blind, placebo-controlled study.
The study employed seven parallel dose groups of eight healthy male humans.
The eplerenone capsules administered corresponded to the capsules (or combinations of the capsules) disclosed in Examples 4, 5, 7 and 8 above. The placebo was a conventional capsule containing lactose. […] The fludrocortisone used in the study consisted of commercially available fludrocortisone tablets (Florinef®, Squibb BV).
The subjects, who underwent a ten hour food fast prior to administration of the dose, received a single oral dose of one of the study medications together with about 180 mL of water at 0800 hours. […] Each dose of fludrocortisone was administered with 150 mL of water except for the 1.0 mg dose which was administered with 200 mL of water.
The plasma samples collected from subjects dosed with eplerenone were assayed for concentrations of eplerenone and the open lactone ring form of eplerenone. […] A subset of plasma samples was also assayed for testosterone levels. The urine collected was analyzed to determine concentrations and amounts of eplerenone and the open lactone ring form of eplerenone, the amount of sodium and potassium excreted, and the urinary log10 (sodium/potassium) ratio.

[2] = Multiple dose study: serum electrolytes, renin, aldosterone, sex hormone and thyroid profiles; format: in vivo, humans
Protocol: Multiple oral dose tolerability and the pharmacokinetics of several dosages of eplerenone were evaluated in a double-blind, randomized, placebo-controlled, rising oral dose, sequential panel study of 40 healthy male subjects (five groups of eight subjects). The study medication was administered in […] sequential dose panels, with each panel including eplerenone, spironolactone and placebo. […] The 100 mg and 200 mg dose capsules corresponded to those described in Examples 7 and 8, respectively. Following a 48-hour interval, the study drug was administered once a day for 11 days. Antialdosterone activity was determined following a fludrocortisone challenge on Days 12-13.
Excretion of total eplerenone (that is, eplerenone and its open ring lactone form) in the urine represented approximately 5% of the dose for all doses administered. Urinary excretion of total eplerenone occurred almost entirely within the first 24 hours after dosing.

SMILES: COC(=O)C1CC2=CC(=O)CCC2(C)C23OC2CC2(C)C(CC[C@@]24CCC(=O)O4)C13 (stereo partly drawn) [eplerenone, methyl hydrogen 9,11α-epoxy-17α-hydroxy-3-oxopregn-4-ene-7α,21-dicarboxylate, γ-lactone]
- concentration at 24 h ([1]; 50 mg): 3 ng/mL
- concentration at 28 h ([1]; 50 mg): 1.8 ng/mL
- concentration at 32 h ([1]; 50 mg): 0 ng/mL
- concentration at 48 h ([1]; 50 mg): 0 ng/mL
- concentration at 72 h ([1]; 50 mg): 0 ng/mL
- concentration at 96 h ([1]; 50 mg): 0 ng/mL
- half-life ([1]; 50 mg): 174 min
- AUC(0-t) ([1]; 100 mg): 7940 ng·h/mL
- Cmax ([1]; 100 mg): 1500 ng/mL
- MRT ([1]; 100 mg): 4.9 h
- Tmax ([1]; 100 mg): 1.5 h
- concentration at 0.5 h ([1]; 100 mg): 758 ng/mL
- concentration at 1 h ([1]; 100 mg): 1220 ng/mL
- concentration at 2 h ([1]; 100 mg): 1360 ng/mL
- concentration at 3 h ([1]; 100 mg): 1110 ng/mL
- concentration at 4 h ([1]; 100 mg): 900 ng/mL
- concentration at 6 h ([1]; 100 mg): 558 ng/mL
- concentration at 8 h ([1]; 100 mg): 275 ng/mL
- concentration at 12 h ([1]; 100 mg): 124 ng/mL
- concentration at 16 h ([1]; 100 mg): 41.9 ng/mL
- concentration at 24 h ([1]; 100 mg): 13.1 ng/mL
- concentration at 28 h ([1]; 100 mg): 6.1 ng/mL
- concentration at 32 h ([1]; 100 mg): 3 ng/mL
- concentration at 48 h ([1]; 100 mg): 0 ng/mL
- concentration at 72 h ([1]; 100 mg): 0 ng/mL
- concentration at 96 h ([1]; 100 mg): 0 ng/mL
- half-life ([1]; 100 mg): 294 min
- AUC(0-t) ([1]; 300 mg): 18500 ng·h/mL
- Cmax ([1]; 300 mg): 2970 ng/mL
- MRT ([1]; 300 mg): 5.5 h
- Tmax ([1]; 300 mg): 1.5 h
- concentration at 0.5 h ([1]; 300 mg): 1620 ng/mL
- concentration at 1 h ([1]; 300 mg): 2680 ng/mL
- concentration at 2 h ([1]; 300 mg): 2780 ng/mL
- concentration at 3 h ([1]; 300 mg): 2220 ng/mL
- concentration at 4 h ([1]; 300 mg): 1950 ng/mL
- concentration at 6 h ([1]; 300 mg): 1270 ng/mL
- concentration at 8 h ([1]; 300 mg): 843 ng/mL
- concentration at 12 h ([1]; 300 mg): 333 ng/mL
- concentration at 16 h ([1]; 300 mg): 142 ng/mL
- concentration at 24 h ([1]; 300 mg): 38.3 ng/mL
- concentration at 28 h ([1]; 300 mg): 21.1 ng/mL
- concentration at 32 h ([1]; 300 mg): 11.3 ng/mL
- concentration at 48 h ([1]; 300 mg): 1.7 ng/mL
- concentration at 72 h ([1]; 300 mg): 0 ng/mL
- concentration at 96 h ([1]; 300 mg): 0 ng/mL
- half-life ([1]; 300 mg): 222 min
- AUC(0-t) ([1]; 1000 mg): 56400 ng·h/mL
- Cmax ([1]; 1000 mg): 7260 ng/mL
- MRT ([1]; 1000 mg): 7 h
- Tmax ([1]; 1000 mg): 2.5 h
- concentration at 0.5 h ([1]; 1000 mg): 3180 ng/mL
- concentration at 1 h ([1]; 1000 mg): 5260 ng/mL
- concentration at 2 h ([1]; 1000 mg): 5940 ng/mL
- concentration at 3 h ([1]; 1000 mg): 6810 ng/mL
- concentration at 4 h ([1]; 1000 mg): 6220 ng/mL
- concentration at 6 h ([1]; 1000 mg): 4150 ng/mL
- concentration at 8 h ([1]; 1000 mg): 2830 ng/mL
- concentration at 12 h ([1]; 1000 mg): 1340 ng/mL
- concentration at 16 h ([1]; 1000 mg): 647 ng/mL
- concentration at 24 h ([1]; 1000 mg): 208 ng/mL
- concentration at 28 h ([1]; 1000 mg): 107 ng/mL
- concentration at 32 h ([1]; 1000 mg): 61.7 ng/mL
- concentration at 48 h ([1]; 1000 mg): 22.3 ng/mL
- concentration at 72 h ([1]; 1000 mg): 1.4 ng/mL
- concentration at 96 h ([1]; 1000 mg): 0 ng/mL
- half-life ([1]; 1000 mg): 906 min
- relationship between eplerenone dose and plasma concentration ([1]; single 10-1000 mg oral doses): linear relationship
- mean plasma renin (active and total) levels ([2]; 100-1000 mg): dose-related increases
- serum aldosterone levels ([2]; 100-1000 mg): dose-related increases
- serum sex hormone and thyroid profiles ([2]; 100-1000 mg): did not show any consistent, sustained or dose-related effects
- serum potassium concentrations ([2]; multiple dose administration): increases
- serum sodium concentrations ([2]; multiple dose administration): transient reductions
- serum sodium and potassium concentrations ([2]; single doses): not significantly changed
